Source: US20120129870A1, “PIPERAZINYL DERIVATIVES USEFUL AS MODULATORS OF THE NEUROPEPTIDE Y2 RECEPTOR” (priority 2007, published 2012)

Key:
NPY Y2 receptor [1] = target: T1, NPY Y2 receptor (Homo sapiens, UniProt P49146); assay: Neuropeptide Y2 pKB assay (FLIPR, KAN-Ts cells stably expressing chimeric G proteins); assay type: cell-based; conditions: apparent pKB, modified Cheng-Prusoff correction
T1 sequence (P49146 1-381): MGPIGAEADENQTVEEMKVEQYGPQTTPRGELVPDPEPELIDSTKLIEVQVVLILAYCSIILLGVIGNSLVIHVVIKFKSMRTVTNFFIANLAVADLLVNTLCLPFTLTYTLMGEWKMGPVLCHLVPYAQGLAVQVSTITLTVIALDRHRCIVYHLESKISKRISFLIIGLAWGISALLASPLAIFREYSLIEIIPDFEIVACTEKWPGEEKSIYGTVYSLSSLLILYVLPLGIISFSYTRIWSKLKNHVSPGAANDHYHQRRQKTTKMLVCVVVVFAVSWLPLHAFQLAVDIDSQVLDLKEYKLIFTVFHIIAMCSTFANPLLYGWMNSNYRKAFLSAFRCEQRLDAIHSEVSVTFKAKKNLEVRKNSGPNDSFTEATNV
Method: The assay was performed using the fluorimetric imaging plate reader (FLIPR) format as described in Dautzenberg, F. M., Biochemical Pharmacology 2005, 69, 1493.
KAN-Ts cells stably expressing chimeric G proteins were seeded at a density of 100,000 cells into poly-d-lysine coated 384-well blackwall, clear-bottom microtiter plates (Corning, N.Y.). One day later, the medium was removed and 50 μl loading medium DMEM high glucose, without serum, supplemented with 10 mM HEPES-acid, 0.1% BSA, 5 mM probenecid and 2 μM Fluo-3AM was added. Cells were loaded for 1 h at 37° C., washed twice with 50 μl assay buffer (5 mM HEPES-acid, 140 mM NaCl, 1 mM MgCl2, 5 mM KCl, 10 mM glucose) and then 30 μl assay buffer was added. Cells were further pre-incubated at room temperature before adding agonists or agonists plus antagonists in 20 μl assay buffer and then measured on a T-channel fluorometric imaging plate reader (FLIPR, Molecular Devices, Sunnyvale, Calif.). Antagonistic potency values were converted to apparent pKB values using a modified Cheng-Prusoff correction. Apparent pKB was calculated as pKB=−log IC50/1+[conc agonist/EC50].

NPY Y2 receptor [2] = target: T1, NPY Y2 receptor; assay: Neuropeptide Y2 radioligand binding assay ([125I]PYY, KAN-Ts membranes); parameters: endogenous in cells; host or cells: KAN-Ts cells (membrane preparation); conditions: for IC50: KAN-Ts membranes endogenously expressing Y2, [125I]PYY (80 pM), 1 h at rt; for Ki: apparent Ki=IC50/(1+C/KD)
Method in brief: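 Membranes from KAN-Ts cells with endogenous Y2 receptors, incubated with 80 pM [125I]PYY ± compound for 1 h at rt in HEPES/NaCl/CaCl2/MgSO4 buffer, then filtered and counted. Nonspecific binding defined with […]. IC50 from sigmoidal fit; Ki = IC50/(1+C/KD).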

| SMILES | Kb (NPY Y2 receptor [1]) [nM] | IC50 (NPY Y2 receptor [2]) [nM] | Ki (NPY Y2 receptor [2]) [nM] |
| --- | --- | --- | --- |
| CCC(CC)C(=O)Nc1ccc(N2CCN(C(c3ccccc3)c3nnc(C(CC)CC)o3)CC2)c(F)c1 (centres unmarked) [Compound 163, 2-Ethyl-N-[4-(4-{[5-(1-ethyl-propyl)-[1,3,4]oxadiazol-2-yl]-phenyl-methyl}-piperazin-1-yl)-3-fluoro-phenyl]-butyramide] | 100 | 20 | – |
| CCC(CC)C(=O)Nc1ccc(N2CCN(C(c3ccccc3)c3nc4ccccc4o3)CC2)c(F)c1 (centres unmarked) [Compound 165, N-{4-[4-(Benzooxazol-2-yl-phenyl-methyl)-piperazin-1-yl]-3-fluoro-phenyl}-2-ethyl-butyramide] | 100 | 18 | – |
| CCC(CC)C(=O)Nc1ccc(N2CCN(C(c3ccccc3)c3nc4ccccc4o3)CC2)c(C#N)c1 (centres unmarked) [Compound 166, N-{4-[4-(Benzooxazol-2-yl-phenyl-methyl)-piperazin-1-yl]-3-cyano-phenyl}-2-ethyl-butyramide] | 79.4 | 7 | – |
| CCC(CC)C(=O)Nc1ccc(N2CCN(C(c3ccccc3)c3nc4ccccc4s3)CC2)c(F)c1 (centres unmarked) [Compound 168, N-{4-[4-(Benzothiazol-2-yl-phenyl-methyl)-piperazin-1-yl]-3-fluoro-phenyl}-2-ethyl-butyramide] | 70.8 | 58 | – |
| CCC(CC)C(=O)Nc1ccc(N2CCN(C(c3ccccc3)c3nc4ccccc4s3)CC2)c(C#N)c1 (centres unmarked) [Compound 169, N-{4-[4-(Benzothiazol-2-yl-phenyl-methyl)-piperazin-1-yl]-3-cyano-phenyl}-2-ethyl-butyramide] | 50.1 | 39 | – |
| CCC(CC)C(=O)Nc1ccc(N2CCN(C(c3ccccc3)c3cc(C)no3)CC2)c(F)c1 (centres unmarked) [Compound 230, 2-Ethyl-N-(3-fluoro-4-{4-[(3-methyl-isoxazol-5-yl)-phenyl-methyl]-piperazin-1-yl}-phenyl)-butyramide] | 25.1 | 12 | – |
| CCC(CC)C(=O)Nc1ccc(N2CCN(C(c3ccccc3)c3noc(CF)n3)CC2)c(F)c1 (centres unmarked) [Compound 235, 2-Ethyl-N-(3-fluoro-4-{4-[(5-fluoromethyl-[1,2,4]-oxadiazol-3-yl)-phenyl-methyl]-piperazin-1-yl}-phenyl)-butyramide] | 63.1 | 30 | – |
| CCc1nc(C(c2ccccc2)N2CCN(c3ccc(NC(=O)C(CC)CC)cc3F)CC2)no1 (centres unmarked) [Compound 236, 2-Ethyl-N-(4-{4-[(5-ethyl-[1,2,4]-oxadiazol-3-yl)-phenyl-methyl]-piperazin-1-yl}-3-fluoro-phenyl)-butyramide] | 15.8 | 23 | – |
| CCC(CC)C(=O)Nc1ccc(N2CCN(C(c3ccccc3)c3ncco3)CC2)c(Br)c1 (centres unmarked) [Compound 237, N-{3-Bromo-4-[4-(oxazol-2-yl-phenyl-methyl)-piperazin-1-yl]-phenyl}-2-ethyl-butyramide] | 63.1 | 16 | – |
| CCC(CC)C(=O)Nc1ccc(N2CCN(C(c3ccccc3)c3noc(-c4cccnc4)n3)CC2)c(F)c1 (centres unmarked) [Compound 238, 2-Ethyl-N-(3-fluoro-4-{4-[phenyl-(5-pyridin-3-yl-[1,2,4]-oxadiazol-3-yl)-methyl]-piperazin-1-yl}-phenyl)-butyramide] | 31.6 | 25 | – |
| CCC(CC)C(=O)Nc1ccc(N2CCN(C(c3ccccc3)c3noc(C)n3)CC2)c(F)c1 (centres unmarked) [Compound 239, 2-Ethyl-N-(3-fluoro-4-{4-[(5-methyl-[1,2,4]-oxadiazol-3-yl)-phenyl-methyl]-piperazin-1-yl}-phenyl)-butyramide] | 12.6 | 13 | – |
| CCC(CC)C(=O)Nc1ccc(N2CCN(C(c3ccccc3)c3noc(-c4ccccc4)n3)CC2)c(F)c1 (centres unmarked) [Compound 240, 2-Ethyl-N-(3-fluoro-4-{4-[phenyl-(5-phenyl-[1,2,4]-oxadiazol-3-yl)-methyl]-piperazin-1-yl}-phenyl)-butyramide] | 126 | 39 | – |

Results, then the molecule that gave them:

| Kb (NPY Y2 receptor [1]) [nM] | IC50 (NPY Y2 receptor [2]) [nM] | Ki (NPY Y2 receptor [2]) [nM] | SMILES |
| --- | --- | --- | --- |
| 126 | 50 | – | CCC(CC)C(=O)Nc1cc(F)c(N2CCN(C(c3ccccc3)c3ncco3)CC2)c(F)c1 (centres unmarked) [Compound 243, N-{3,5-Difluoro-4-[4-(oxazol-2-yl-phenyl-methyl)-piperazin-1-yl]-phenyl}-2-ethyl-butyramide] |
| 501 | – | 14 | Cc1noc(C)c1C(=O)Nc1ccc(N2CCN(C(c3ccccc3)c3ccccc3)CC2)c(C#N)c1 [Compound 302, N-{3-Cyano-4-[4-(diphenylmethyl)piperazin-1-yl]phenyl}-3,5-dimethylisoxazole-4-carboxamide] |
| 501 | – | 4.7 | CCC(CC)C(=O)Nc1ccc(N2CCN(C(c3ccccc3)c3ccccc3)CC2)c(C#N)c1 [Compound 304, N-[4-(4-Benzhydryl-piperazin-1-yl)-3-cyano-phenyl]-2-ethyl-butyramide] |
| 316 | – | 36 | CCC(CC)C(=O)Nc1ccc(N2CCN(C(c3ccccc3)c3ccccc3C)CC2)c(C#N)c1 (centres unmarked) [Compound 305, N-{3-Cyano-4-[4-(phenyl-o-tolyl-methyl)-piperazin-1-yl]-phenyl}-2-ethyl-butyramide] |
| 50.1 | – | 4.4 | CCC(CC)C(=O)Nc1ccc(N2CCN(C(c3ccccc3)c3ccncc3)CC2)c(C#N)c1 (centres unmarked) [Compound 315, N-{3-Cyano-4-[4-(phenyl-pyridin-4-yl-methyl)-piperazin-1-yl]-phenyl}-2-ethyl-butyramide] |
| 31.6 | – | 4.3 | CCC(CC)C(=O)Nc1ccc(N2CCN(C(c3ccccc3)c3cccnc3)CC2)c(C#N)c1 (centres unmarked) [Compound 317, N-{3-Cyano-4-[4-(phenyl-pyridin-3-yl-methyl)-piperazin-1-yl]-phenyl}-2-ethyl-butyramide] |
| 31.6 | – | 11 | N#Cc1cc(NC(=O)C2CC2)ccc1N1CCN(C(c2ccccc2)c2cccnc2)CC1 (centres unmarked) [Compound 321, Cyclopropanecarboxylic acid {3-cyano-4-[4-(phenyl-pyridin-3-yl-methyl)-piperazin-1-yl]-phenyl}-amide] |
